Measurements published in ChEMBL document CHEMBL2375222, “Synthesis of 1H-1,2,3-triazole linked β-lactam-isatin bi-functional hybrids and preliminary analysis of in vitro activity against the protozoal parasite Trichomonas vaginalis” (Eur J Med Chem, 2013).
pIC50: −log10 of the molar value.

Experiments:
CHO-K1 [1] = experiment: Cytotoxicity against CHOK1 cells assessed as change in cell morphology at 100 uM by light microscopy; assay type: cell-based, Cricetulus griseus; details: chinese hamster, cho-k1, 100 µM
Trichomonas vaginalis [2] = experiment: […] activity against Trichomonas vaginalis G3 after 24 hrs by hemocytometry; assay type: functional; details: G3, 24 h
Trichomonas vaginalis [3] = experiment: […] activity against Trichomonas vaginalis G3 at 100 uM after 24 hrs by hemocytometry; assay type: functional; details: G3, 24 h
Trichomonas vaginalis [4] = experiment: […] activity against Trichomonas vaginalis G3 at 10 uM after 24 hrs by hemocytometry; assay type: functional; details: G3, 24 h
CHO-K1 [5] = experiment: Cytotoxicity against CHOK1 cells assessed as change in cell morphology by light microscopy; assay type: cell-based; details: Cricetulus griseus

pIC50 (Trichomonas vaginalis [2])	SMILES	Activity (CHO-K1 [1])	inhibition at 100 µM (Trichomonas vaginalis [3]) [%]	inhibition at 10 µM (Trichomonas vaginalis [4]) [%]	pIC50 (CHO-K1 [5])
4.35	Cc1ccc2c(c1)C(=O)C(=O)N2Cc1cn([C@@H]2C(=O)N(C3CCCCC3)[C@@H]2/C=C/c2ccccc2)nn1 (relative stereo)	Toxic	95.7	9.8	–
5.00	O=C1C(=O)N(Cc2cn([C@@H]3C(=O)N(c4ccc(Cl)cc4)[C@@H]3/C=C/c3ccccc3)nn2)c2ccc(Cl)cc21 (relative stereo)	Toxic	100	53.7	–
4.56	Cc1ccc(N2C(=O)[C@@H](n3cc(CN4C(=O)C(=O)c5ccccc54)nn3)[C@H]2/C=C/c2ccccc2)cc1	Toxic	100	4.9	–
5.03	O=C1C(=O)N(Cc2cn([C@@H]3C(=O)N(c4ccccc4)[C@@H]3/C=C/c3ccccc3)nn2)c2ccc(Br)cc21 (relative stereo)	Toxic	100	83	–
5.08	O=C1C(=O)N(Cc2cn([C@@H]3C(=O)N(c4ccc(Cl)cc4)[C@@H]3/C=C/c3ccccc3)nn2)c2ccccc21 (relative stereo)	Toxic	100	80.5	–
5.01	O=C1C(=O)N(Cc2cn([C@@H]3C(=O)N(c4ccccc4)[C@@H]3/C=C/c3ccccc3)nn2)c2ccc(Cl)cc21 (relative stereo)	Toxic	100	61	–
4.66	Cc1ccc(N2C(=O)[C@@H](n3cc(CN4C(=O)C(=O)c5cc(F)ccc54)nn3)[C@H]2/C=C/c2ccccc2)cc1 (relative stereo)	Toxic	100	58.5	–
5.15	O=C1C(=O)N(Cc2cn([C@@H]3C(=O)N(c4ccccc4)[C@@H]3/C=C/c3ccccc3)nn2)c2ccc(F)cc21 (relative stereo)	Toxic	100	58.5	–
5.00	Cc1ccc(N2C(=O)[C@@H](n3cc(CN4C(=O)C(=O)c5cc(Cl)ccc54)nn3)[C@H]2/C=C/c2ccccc2)cc1 (relative stereo)	Toxic	100	48.8	–
5.11	O=C1C(=O)N(Cc2cn([C@@H]3C(=O)N(c4ccc(F)cc4)[C@@H]3/C=C/c3ccccc3)nn2)c2ccccc21 (relative stereo)	–	100	38.5	5.11

Second part, the molecule before the results:

SMILES	pIC50 (Trichomonas vaginalis [2])	Activity (CHO-K1 [1])	inhibition at 100 µM (Trichomonas vaginalis [3]) [%]	inhibition at 10 µM (Trichomonas vaginalis [4]) [%]	pIC50 (CHO-K1 [5])
O=C1C(=O)N(Cc2cn([C@@H]3C(=O)N(Cc4ccccc4)[C@@H]3/C=C/c3ccccc3)nn2)c2ccccc21 (relative stereo)	5.06	Toxic	100	7.8	–
O=C1C(=O)N(Cc2cn([C@@H]3C(=O)N(C4CCCCC4)[C@@H]3/C=C/c3ccccc3)nn2)c2ccc(F)cc21 (relative stereo)	–	Toxic	100	0	–
Cc1ccc2c(c1)C(=O)C(=O)N2Cc1cn([C@@H]2C(=O)N(c3ccccc3)[C@@H]2/C=C/c2ccccc2)nn1	–	Toxic	82.6	0	–
O=C1C(=O)N(Cc2cn([C@@H]3C(=O)N(c4ccc(F)cc4)[C@@H]3/C=C/c3ccccc3)nn2)c2ccc(F)cc21 (relative stereo)	–	Toxic	100	19.5	–
O=C1C(=O)N(Cc2cn([C@@H]3C(=O)N(C4CCCCC4)[C@@H]3/C=C/c3ccccc3)nn2)c2ccccc21	–	Toxic	100	26.8	–
O=C1C(=O)N(Cc2cn([C@@H]3C(=O)N(C4CCCCC4)[C@@H]3/C=C/c3ccccc3)nn2)c2ccc(Br)cc21 (relative stereo)	–	Toxic	100	4.9	–
O=C1C(=O)N(Cc2cn([C@@H]3C(=O)N(c4ccccc4)[C@@H]3/C=C/c3ccccc3)nn2)c2ccccc21 (relative stereo)	–	Toxic	100	100	–
O=C1C(=O)N(Cc2cn([C@@H]3C(=O)N(c4ccc(F)cc4)[C@@H]3/C=C/c3ccccc3)nn2)c2ccc(Br)cc21 (relative stereo)	–	Toxic	100	0	–
O=C1C(=O)N(Cc2cn([C@@H]3C(=O)N(C4CCCCC4)[C@@H]3/C=C/c3ccccc3)nn2)c2ccc(Cl)cc21 (relative stereo)	–	Toxic	100	7.3	–
O=C1C(=O)N(Cc2cn([C@@H]3C(=O)N(c4ccc(F)cc4)[C@@H]3/C=C/c3ccccc3)nn2)c2ccc(Cl)cc21 (relative stereo)	–	Toxic	100	14.6	–
O=C1C(=O)N(Cc2cn([C@@H]3C(=O)N(Cc4ccccc4)[C@@H]3/C=C/c3ccccc3)nn2)c2ccc(Cl)cc21 (relative stereo)	–	Toxic	67.4	7.3	–
O=C1C(=O)N(Cc2cn([C@@H]3C(=O)N(Cc4ccccc4)[C@@H]3/C=C/c3ccccc3)nn2)c2ccc(F)cc21 (relative stereo)	–	Toxic	19.6	0	–
